Test results published in patent US20170291905A1, “ARGININE […] INHIBITORS AND USES THEREOF” (Epizyme, Inc., priority 2014, published 2017).

biological target: T1, full-length human PRMT1 isoform 1 (GST-tagged) (Homo sapiens, UniProt Q99873); assay: PRMT1 biochemical assay (3H-SAM Flashplate, histone H4 36-50 peptide); details: 0.5 nM PRMT1, 30 min preincubation, 20 nM peptide
T1 construct: GST-tagged PRMT1 was eluted with 50 mM Tris, 2 mM glutathione, pH 7.8, dialysed in buffer A and concentrated; made in house; host or cells: High Five insect cells (baculovirus)
T1 sequence (Q99873 with tags, fused parts or gaps): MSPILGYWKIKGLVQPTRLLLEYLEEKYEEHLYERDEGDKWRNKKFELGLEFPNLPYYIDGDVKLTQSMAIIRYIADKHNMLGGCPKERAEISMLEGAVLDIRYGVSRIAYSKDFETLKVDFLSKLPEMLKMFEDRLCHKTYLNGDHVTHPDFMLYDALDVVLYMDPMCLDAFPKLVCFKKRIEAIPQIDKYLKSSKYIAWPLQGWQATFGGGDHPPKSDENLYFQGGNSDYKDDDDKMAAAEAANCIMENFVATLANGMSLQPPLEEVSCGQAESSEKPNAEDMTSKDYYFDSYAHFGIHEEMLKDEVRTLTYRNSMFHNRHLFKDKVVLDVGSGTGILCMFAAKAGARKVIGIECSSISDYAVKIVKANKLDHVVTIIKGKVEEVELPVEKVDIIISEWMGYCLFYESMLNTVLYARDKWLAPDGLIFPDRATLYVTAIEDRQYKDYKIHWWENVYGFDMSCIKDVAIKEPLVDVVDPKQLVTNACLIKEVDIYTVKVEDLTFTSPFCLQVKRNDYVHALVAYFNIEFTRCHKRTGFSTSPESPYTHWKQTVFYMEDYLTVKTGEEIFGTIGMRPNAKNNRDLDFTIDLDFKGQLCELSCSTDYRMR
Method in brief: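 GST-PRMT1 (0.5 nM) preincubated 30 min at room temperature with compound in bicine buffer pH 7.6. Reaction then run with 200 nM 3H-SAM plus 1.5 uM SAM and 20 nM biotinylated H4 36-50 peptide, 2% DMSO. Stopped with excess cold SAM, and methylated peptide captured on streptavidin Flashplates for counting; % inhibition versus DMSO and 1 mM SAH controls, 3- or 4-parameter fit.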

| IC50 [nM] | Compound |
| --- | --- |
| 4.8 | CC[C@H]1CC[C@@H](c2n[nH]cc2CN(C)CCNC)CC1 [compound 1] |
| 31.2 | CCOCCOCC1(COCCOCC)CCC(c2n[nH]cc2CN(C)CCNC)CC1 [compound 39, N1-((3-(4,4-bis((2-ethoxyethoxy)methyl)cyclohexyl)-1H-pyrazol-4-yl)methyl)-N1,N2-dimethylethane-1,2-diamine] |
| 20.7 | CNCCN(C)Cc1c[nH]nc1C1CCC(COCCC2CCOCC2)(COCCC2CCOCC2)CC1 [compound 40] |
| 4.33 | CNCCN(C)Cc1c[nH]nc1C1CCC(COCC2CC2)(COCC2CC2)CC1 [compound 41, N1-((3-(4,4-bis((cyclopropylmethoxy)methyl)cyclohexyl)-1H-pyrazol-4-yl)methyl)-N1,N2-dimethylethane-1,2-diamine] |
| 31.5 | CN(C)CCN(C)Cc1c[nH]nc1[C@H]1CC[C@@]2(CC1)CC(C)(C)CO2 [compound 42, N1-((3-((5S,8S)-3,3-dimethyl-1-oxaspiro[4.5]decan-8-yl)-1H-pyrazol-4-yl)methyl)-N1,N2,N2-trimethylethane-1,2-diamine] |
| 57 | CN(C)CCN(C)Cc1c[nH]nc1[C@H]1CC[C@]2(CC1)CC(C)(C)CO2 [compound 43, N1-((3-((5r,8r)-3,3-dimethyl-1-oxaspiro[4.5]decan-8-yl)-1H-pyrazol-4-yl)methyl)-N1,N2,N2-trimethylethane-1,2-diamine] |
| 21.3 | CNCCN(C)Cc1c[nH]nc1C1CCC(CO)(CO)CC1 [compound 44, (4-(4-((methyl(2-(methylamino)ethyl)amino)methyl)-1H-pyrazol-3-yl)cyclohexane-1,1-diyl)dimethanol] |
| 33 | CNCCN(C)Cc1c[nH]nc1C1CCC(COC)(COCC2CCOCC2)CC1 (stereo not drawn) [compound 45] |
| 19.8 | CNCCN(C)Cc1c[nH]nc1C1=CCC2(CC1)CC(C)(C)CO2 (stereo not drawn) [compound 46, N1-((3-(3,3-dimethyl-1-oxaspiro[4.5]dec-7-en-8-yl)-1H-pyrazol-4-yl)methyl)-N1,N2-dimethylethane-1,2-diamine] |
| 15.2 | CCC1(CC)C[C@]2(CC[C@H](c3n[nH]cc3CN(C)CCNC)CC2)NC1=O [compound 47, (5s,8s)-3,3-diethyl-8-(4-((methyl(2-(methylamino)ethyl)amino)methyl)-1H-pyrazol-3-yl)-1-azaspiro[4.5]decan-2-one] |
| 35.3 | CCC1(CC)C[C@]2(CC[C@@H](c3n[nH]cc3CN(C)CCNC)CC2)NC1=O [compound 48, (5r,8r)-3,3-diethyl-8-(4-((methyl(2-(methylamino)ethyl)amino)methyl)-1H-pyrazol-3-yl)-1-azaspiro[4.5]decan-2-one] |
| 19.3 | CNCCN(C)Cc1ccnn1[C@H]1CC[C@@]2(CC1)CC(C)(C)CO2 [compound 49, N1-((1-((5s,8s)-3,3-dimethyl-1-oxaspiro[4.5]decan-8-yl)-1H-pyrazol-5-yl)methyl)-N1,N2-dimethylethane-1,2-diamine] |
